≈ marks a conversion by molar mass, not a printed value.
Assays:
[1] = test system: BRD4(1); conditions: cell-free assays, ref [10], cited from earlier work
[2] = test system: BRD4(2); conditions: cell-free assays, ref [10], cited from earlier work
[3] = Stability of JQ1 in microdialysate; format: physicochemical
[4] = Stability of primary stock solution; format: physicochemical; conditions: stored at −80°C for 88-days, R.S.D ≤ 1.16%

What does the source list for `Cc1sc2c(c1C)C(c1ccc(Cl)cc1)=N[C@@H](CC(=O)OC(C)(C)C)c1nnc(C)n1-2` [JQ1]?
IC50 BRD4(1) [1]: 0.0352 µg/mL (≈ 0.077 µM); IC50 ([1]; read-out: IC50 BRD4(1)): 0.077 µM; IC50 BRD4(2) [2]: 0.0151 µg/mL (≈ 0.033 µM); IC50 ([2]; read-out: IC50 BRD4(2)): 0.033 µM; % Mean deviation ([3]; Bench-top 4C: 24h at 4°C, nominal 1.5 ng/mL): 5.96%; % Mean deviation ([3]; Bench-top RT: 24h at room temperature, nominal 1.5 ng/mL): 3.23%; % Mean deviation ([3]; Bench-top RT: 24h at room temperature, nominal 400 ng/mL): 5.26%; % Mean deviation ([3]; Long-term: 21 days at −80°C, nominal 1.5 ng/mL): 12.83%; % Mean deviation ([3]; Long-term: 21 days at −80°C, nominal 400 ng/mL): 5.62%; % Mean deviation ([3]; Process: 48 h in auto sampler at 4°C, nominal 1.5 ng/mL): 0.46%; % Mean deviation ([3]; Process: 48 h in auto sampler at 4°C, nominal 400 ng/mL): 1.39%; Autosampler (post-extractive) stability (in words) ([3]; extracted quality control samples, microdialysate, autosampler 48 h): stable; Freeze-thaw stability (in words) ([3]; microdialysate, three freeze-thaw cycles): no-stability related issues; Short-term stability (in words) ([3]; spiked microdialysate, 24 h at 4°C and room temperature): stable; Long-term stability (in words) ([3]; spiked microdialysate, −80°C for 21 days): confirmed; % Mean deviation ([3]; three freeze-thaw cycles, nominal 1.5 ng/mL): 11.77%; Stability of primary stock solution (in words) [4]: stable

— publication PMC8384680 (Journal of pharmaceutical and biomedical analysis, 2021)
